Measured values taken from ChEMBL document CHEMBL5385897, “Computer-Aided drug design of new 2-amino-thiophene derivatives as anti-leishmanial agents” (Eur J Med Chem, 2023).

Columns and labels:
[1] = Selectivity index, ratio of CC50 for cytotoxicity against mouse J774.A1 cells to IC50 for antileishmanial activity against Leishmania amazonensis axenic amastigote assessed as inhibition of parasite growth; type: toxicity, cell-based; details: read-out: Ratio CC50/IC50
Leishmania amazonensis [2] = test: Antileishmanial activity against Leishmania amazonensis promastigote assessed as inhibition of parasite growth incubated for 72 hrs by MTT colorimetric assay; type: functional, organism-based
Leishmania amazonensis [3] = test: Antileishmanial activity against Leishmania amazonensis axenic amastigote assessed as inhibition of parasite growth incubated for 72 hrs by MTT colorimetric assay; type: functional, organism-based
[4] = Selectivity index, ratio of CC50 for cytotoxicity against mouse J774.A1 cells to IC50 for antileishmanial activity against Leishmania amazonensis promastigote assessed as inhibition of parasite growth; type: toxicity, cell-based; details: read-out: Ratio CC50/IC50
[5] = Cytotoxicity against mouse J774.A1 cells incubated for 72 hrs by MTT colorimetric assay; type: toxicity, cell-based

| Structure (SMILES) | selectivity ratio [1] | IC50 (Leishmania amazonensis [2]) | IC50 (Leishmania amazonensis [3]) | selectivity ratio [4] | CC50 at 72 h [5] |
| --- | --- | --- | --- | --- | --- |
| N#Cc1c(N)sc2c1CCCCCC2 | 4.47 | 1.2 µM | 9.8 µM | 36.6 | 43.9 µM |
| N#Cc1c(N)sc2c1CCCCC2 | 35.7 | – | 2.79 µM | 31.1 | 99.5 µM |
| N#Cc1c(N)sc2c1CCCC2 | – | – | > 10 µM | – | – |
| COc1ccc2[nH]cc(/C=N/c3sc4c(c3C#N)CCCCCC4)c2c1 | – | 900 µM | 2160 µM | – | – |
| N#Cc1c(/N=C/c2c[nH]c3ccc(Br)cc23)sc2c1CCC2 | – | > 10 µM | > 10 µM | – | > 100 µM |
| N#Cc1ccsc1/N=C/c1c[nH]c2ccc(Br)cc12 | 119 | 9.7 µM | 0.71 µM | 8.73 | 84.7 µM |
| N#Cc1c(/N=C/c2c[nH]c3ccc(Br)cc23)sc2c1CCNC2 | – | > 10 µM | > 10 µM | – | 11.2 µM |
| N#Cc1c(/N=C/c2c[nH]c3ccc(Br)cc23)sc2c1CCCCCCCCCC2 | – | > 10 µM | > 10 µM | – | > 100 µM |
| N#Cc1c(/N=C/c2c[nH]c3ccc(Br)cc23)sc2c1CCCCCC2 | > 26.3 | 4.75 µM | 3.8 µM | > 21.1 | > 100 µM |
| CC1CCc2c(sc(/N=C/c3c[nH]c4ccc(Br)cc34)c2C#N)C1 (stereo unspecified) | > 11.5 | 9.9 µM | 8.72 µM | > 10.1 | > 100 µM |
